Laboratory results: patent publication US7943628B2, “Pyrimidine derivatives” (Pfizer Limited, priority 2005, dated 2011)

How the values were obtained:
histamine H4 receptor [1] = molecular target: T1, histamine H4 receptor (Homo sapiens, UniProt Q9H3N8); experiment: H4 binding, method 2 ([3H]-histamine binding with Ysi WGA beads on CHO cell membranes); conditions: for Ki: H4 binding, method 2, Ki calculated from IC50 (Cheng-Prussoff)
T1 construct: expressed in transfected cells; host or cells: CHO cells
In short: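 Membranes from H4-expressing CHO cells were pre-bound to WGA SPA beads, then incubated 90 min at room temperature with 6.5 nM [3H]-histamine in 50 mM Tris-HCl pH 7.4, with or without competitor. Non-specific binding defined with 10 μM JNJ7777120; bound label read by scintillation counting.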

histamine H4 receptor [2] = molecular target: T1, histamine H4 receptor; experiment: H4 binding, method 1 ([3H]-histamine filtration binding on CHO cell membranes); conditions: H4 binding, method 1; Ki calculated from IC50 (Cheng-Prussoff)
In short: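 Membranes from CHO cells expressing human H4 receptor (20-35 μg/well) incubated 90 min at room temperature with 3 nM [3H]-histamine in 50 mM Tris-HCl pH 7.4, ± competitor. Bound label separated by filtration on PEI-soaked GF/B filters and counted by scintillation; non-specific binding with 10 μM JNJ7777120.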

Ki (histamine H4 receptor [2])	Ki (histamine H4 receptor [1]; read-out: Method 2 (Ki (nM)))	Method 2, % at 40 μM (histamine H4 receptor [1]; at 40 μM)	Structure (SMILES)	Ki (histamine H4 receptor [1]; Method 2 (Ki (nM)))
4.63 nM	4.43 nM	–	CNC1CN(c2cc(NCCC(C)(C)C)nc(N)n2)C1 [Example 64, N^4-(3,3-Dimethyl-butyl)-6-(3-methylamino-azetidin-1-yl)-pyrimidine-2,4-diamine]	–
10.6 nM	31.6 nM	–	CN[C@@H]1CCN(c2cc(NCC(C)(C)C)nc(N)n2)C1 [Example 11, N^4-(2,2-Dimethylpropyl)-6-[(3R)-3-(methylamino)pyrrolidin-1-yl] pyrimidine-2,4-diamine]	–
0.278 nM	1.6 nM	–	CNC1CN(c2cc(NCC3CCC3)nc(N)n2)C1 [Example 67, N^4-Cyclobutylmethyl-6-(3-methylamino-azetidin-1-yl)-pyrimidine-2,4-diamine]	–
0.979 nM	6.26 nM	–	CNC1CN(c2cc(NCC3CCCC3)nc(N)n2)C1 [Example 68, N^4-Cyclopentylmethyl-6-(3-methylamino-azetidin-1-yl)-pyrimidine-2,4-diamine]	–
58.9 nM	59.3 nM	–	CN(C)[C@@H]1CCN(c2cc(NCC(C)(C)C)ncn2)C1 [Example 22, 6-[(3R)-3-(Dimethylamino)pyrrolidin-1-yl]-N-(2,2-dimethylpropyl)pyrimidin-4-amine]	–
839 nM	> 16200 nM	–	CCN1CCN(c2cc(NCCC(C)(C)C)ncn2)CC1 [Example 270, N-(3,3-Dimethylbutyl)-6-(4-ethylpiperazin-1-yl)pyrimidin-4-amine]	–
–	414 nM	–	CNC1CN(c2cc(NCCOC)ncn2)C1 [Example 54, N-(2-Methoxyethyl)-6-[3-(methylamino)azetidin-1-yl]pyrimidin-4-amine]	–
–	61.1 nM	–	C[C@H]1CN(c2cc(NCCC(C)(C)C)nc(N)n2)CCN1 [Example 94, N^4-(3,3-Dimethylbutyl)-6-[(3S)-3-methylpiperazin-1-yl]pyrimidine-2,4-diamine]	–
–	52.4 nM	–	CCNc1cc(N2CC[C@@H](NC)C2)nc(N)n1 [Example 12, N^4-Ethyl-6-[(3R)-3-(methylamino)pyrrolidin-1-yl]pyrimidine-2,4-diamine]	–
–	279 nM	–	CNC1CN(c2cc(NCCO)ncn2)C1 [Example 50, 2-({6-[3-(Methylamino)azetidin-1-yl]pyrimidin-4-yl}amino)ethanol]	–
2.7 nM	19.3 nM	–	CN[C@@H]1CCN(c2cc(NCC3CC3)nc(N)n2)C1 [Example 9, N^4-(Cyclopropylmethyl)-6-[(3R)-3-(methylamino)pyrrolidin-1-yl]pyrimidine-2,4-diamine]	–
–	1350 nM	–	CN1C[C@@H]2CN(c3cc(NCc4cccc(F)c4)nc(N)n3)C[C@@H]2C1 [Example 92, N^4-(3-Fluorobenzyl)-6-[(3aR*,6aS*)-5-methylhexahydropyrrolo [3,4-c]pyrrol-2(1H)-yl]pyrimidine-2,4-diamine]	–
–	255 nM	–	CNC1CN(c2cc(NCc3ccc(C#N)cc3)nc(N)n2)C1 [Example 77, 4-[({2-Amino-6-[3-(methyl-amino)azetidin-1-yl]pyrimidin-4-yl}amino)methyl]benzonitrile]	–

The remaining lines, values behind:

Structure (SMILES)	Ki (histamine H4 receptor [2])	Ki (histamine H4 receptor [1]; read-out: Method 2 (Ki (nM)))	Method 2, % at 40 μM (histamine H4 receptor [1]; at 40 μM)	Ki (histamine H4 receptor [1]; Method 2 (Ki (nM)))
CN1CCN(c2cc(NCC(C)(C)C)ncn2)CC1 [Example 99, N-(2,2-Dimethylpropyl)-6-(4-methylpiperazin-1-yl)pyrimidin-4-amine]	23.6 nM	–	–	38.1 nM
CC(C)Nc1cc(N2CCN(C)CC2)nc(N)n1 [Example 119, N^4-Isopropyl-6-(4-methylpiperazin-1-yl)pyrimidine-2,4-diamine]	3.44 nM	–	–	7.8 nM
CCNc1cc(N2CCN(C)CC2)nc(N)n1 [Example 120, N^4-Ethyl-6-(4-methylpiperazin-1-yl)pyrimidine-2,4-diamine]	4.89 nM	–	–	11.2 nM
CNC1CN(c2cc(NCC(C)(C)C)nc(N)n2)C1 [Example 61, N^4-(2,2-Dimethylpropyl)-6-[3-(methylamino)azetidin-1-yl]pyrimidine-2,4-diamine]	1.66 nM	1.33 nM	–	–
CC(C)(C)CCNc1cc(N2CCNCC2)ncn1 [Example 111, N-(3,3-Dimethylbutyl)-6-piperazin-1-ylpyrimidin-4-amine]	201 nM	1800 nM	–	–
CN[C@@H]1CCN(c2cc(NCC(C)C)ncn2)C1 [Example 14, N-Isobutyl-6-[(3R)-3-(methyl-amino)pyrrolidin-1-yl]pyrimidin-4-amine]	13.6 nM	23.3 nM	–	–
CNC1CN(c2cc(NCC(C)C)ncn2)C1 [Example 49, N-Isobutyl-6-[3-(methylamino)azetidin-1-yl]pyrimidin-4-amine]	10.7 nM	29.9 nM	–	–
CN1CCN(c2cc(NCCC(C)(C)C)ncn2)CC1 [Example 1, N-(3,3-Dimethylbutyl)-6-(4-methylpiperazin-1-yl)pyrimidin-4-amine]	82.3 nM	335 nM	–	–
CNC1CN(c2cc(NCCC(C)(C)C)ncn2)C1 [Example 59, N-(3,3-Dimethylbutyl)-6-[3-(methylamino)azetidin-1-yl]pyrimidin-4-amine]	37.7 nM	59.2 nM	–	–
CNC1CN(c2cc(NCCC(C)C)nc(N)n2)C1 [Example 74, 6-[3-(Methylamino)azetidin-1-yl]-N^4-(3-methylbutyl)pyrimidine-2,4-diamine]	0.58 nM	16.8 nM	–	–
CNC1CN(c2cc(NCCC(F)(F)F)nc(N)n2)C1 [Example 62, 6-(3-Methylamino-azetidin-1-yl)-N^4-(3,3,3-trifluoro-propyl)-pyrimidine-2,4-diamine]	8.94 nM	14.1 nM	–	–
CN1CCC(N(C)c2cc(NCCC(C)(C)C)ncn2)CC1 [Example 279, N′-(3,3-Dimethylbutyl)-N-methyl-N-(1-methylpiperidin-4-yl)pyrimidine-4,6-diamine]	1370 nM	> 9130 nM	–	–
CNC1CN(c2cc(NC(C)C)nc(N)n2)C1 [Example 60, N^4-Isopropyl-6-(3-methylamino-azetidin-1-yl)-pyrimidine-2,4-diamine]	3.57 nM	28.8 nM	–	–
CC(C)CNc1cc(N2CCN(C)CC2)nc(N)n1 [Example 121, N^4-Isobutyl-6-(4-methylpiperazin-1-yl)pyrimidine-2,4-diamine]	2.18 nM	–	–	6.64 nM
CNC1CN(c2cc(NCc3ccccc3OC)nc(N)n2)C1 [Example 87, N^4-(2-Methoxybenzyl)-6-[3-(methylamino)azetidin-1-yl]pyrimidine-2,4-diamine]	–	17.4 nM	–	–
CN1C[C@@H]2CN(c3cc(NC4CC4)nc(N)n3)C[C@@H]2C1 [Example 42, N^4-Cyclopropyl-6-[(3aR*,6aS*)-5-methylhexahydro-pyrrolo[3,4-c]pyrrol-2(1H)-yl]pyrimidine-2,4-diamine]	–	433 nM	–	–
CNC1CN(c2cc(NCC(C)C)nc(N)n2)C1 [Example 71, N^4-Isobutyl-6-[3-(methylamino)azetidin-1-yl]pyrimidine-2,4-diamine]	1.29 nM	14 nM	–	–
CCNc1cc(N2C[C@H]3CCCN[C@H]3C2)nc(N)n1 (racemic) [Example 26, N^4-Ethyl-6-[(4aR*,7aR*)-octahydro-6H-pyrrolo[3,4-b]pyridin-6-yl]pyrimidine-2,4-diamine]	–	–	–	30 nM
CC(C)CNc1cc(N2CC[C@@H](N(C)C)C2)ncn1 [Example 20, 6-[(3R)-3-(Dimethylamino)pyrrolidin-1-yl]-N-isobutyl-pyrimidin-4-amine]	30.5 nM	58.1 nM	–	–
c1nc(NC[C@@H]2CCCO2)cc(N[C@@H]2CCNC2)n1 [Example 341, N-[(3R)-Pyrrolidin-3-yl]-N′-[(2S)-tetrahydrofuran-2-ylmethyl]pyrimidine-4,6-diamine]	–	16300 nM	–	–
CC(C)(C)CCNc1cc(N2CC[C@H](N3CCCC3)C2)ncn1 [Example 342, 6-[(3′S)-1,3′-Bipyrrolidin-1′-yl]-N-(3,3-dimethylbutyl)pyrimidin-4-amine]	–	–	13% at 40 μM	–
CNC1CN(c2cc(NCc3ccccc3C)nc(N)n2)C1 [Example 82, 6-[3-(Methylamino)azetidin-1-yl]-N^4-(2-methylbenzyl)pyrimidine-2,4-diamine]	–	9.68 nM	–	–
CC(C)CCNc1cc(N2C[C@H]3CN(C)C[C@H]3C2)nc(N)n1 [Example 41, N^4-(3-Methylbutyl)-6-[(3aR*,6aS*)-5-methylhexahydro-pyrrolo[3,4-c]pyrrol-2(1H)-yl]pyrimidine-2,4-diamine]	–	202 nM	–	–
CNC1CN(c2cc(NCc3cccc(C(F)(F)F)c3)nc(N)n2)C1 [Example 80, 6-[3-(Methylamino)azetidin-1-yl]-N^4-[3-(trifluoromethyl)benzyl]pyrimidine-2,4-diamine]	–	103 nM	–	–
CNC1CN(c2cc(NCc3cccc(F)c3)nc(N)n2)C1 [Example 65, N^4-(3-Fluoro-benzyl)-6-(3-methylamino-azetidin-1-yl)-pyrimidine-2,4-diamine]	17.5 nM	19.8 nM	–	–
CN1CCN(c2cc(NCC3CC3)nc(N)n2)CC1 [Example 122, N^4-(Cyclopropylmethyl)-6-(4-methylpiperazin-1-yl)pyrimidine-2,4-diamine]	3.65 nM	–	–	8.65 nM
CC(C)(C)CCNc1cc(N2C[C@H]3CCCN[C@H]3C2)nc(N)n1 (racemic) [Example 23, N^4-(3,3-Dimethylbutyl)-6-[(4aR*,7aR*)-octahydro-6H-pyrrolo[3,4-b]pyridin-6-yl]pyrimidine-2,4-diamine]	–	824 nM	–	–
CN1CCN(c2cc(NCc3cccc(F)c3)nc(N)n2)CC1 [Example 91, N^4-(3-Fluorobenzyl)-6-(4-methylpiperazin-1-yl)pyrimidine-2,4-diamine]	–	386 nM	–	–
